Measurements published in patent US5506354A, “Imidazolylpiperazinyl steroids” (The Upjohn Company, priority 1992, dated 1996).
Structures can show the parent of a compound that is named as a salt.

Experiments:
angiogenesis = experiment: Chick embryo assay of Folkman (inhibition of angiogenesis / tumor growth); type: in vivo; conditions: 50 μg/10 μl in the presence of heparin
Description: According to this procedure compounds which are considered to be "active" (i.e. antiangiogenic) give an avascular zone of 4 mm or greater in some embryos when tested at 50 μg/10 μl in the presence of 50 μg/10μ of heparin.

arachidonic acid = experiment: Arachidonic Acid Antagonism Assay (AAAA), LD50 of sodium arachidonate; type: in vivo, Charles River male CF-1 mice; conditions: test compound IV 15 min before sodium arachidonate; LD50 outside 95% confidence interval of control
Description: Since these metabolites contribute to the pathological problems associated with stroke, spinal trauma and head injury, compounds which antagonize arachidonic acid are useful in treating stroke, spinal trauma and head injury.
While not necessary to determine arachidonic acid antagonism, the above assay has been modified as follows: Charles River male CF-1 mice weighing 18-22 g are treated IV with the test compound dissolved in 1.0% Tween-80 and 0.1% hydrochloric acid in distilled water, 0.2 ml total volume. Fifteen minutes later sodium arachidonate (90% pure) in physiological (normal) saline is injected into the tail vein. The LD50 is measured using the Spearman-Karber method with a log dose interval of 0.05 (N=6). Compounds which elevate the LD50 outside of the 95% confidence interval of the control LD50 are considered to be "active".

| Structure (SMILES) | inhibition of angiogenesis (activity in words) (angiogenesis) | % of Embryos with 4 mm or Greater Avascular Zone (angiogenesis) [%] | arachidonic acid antagonism (activity in words) (arachidonic acid) |
| --- | --- | --- | --- |
| C[C@]12CCC(=O)C=C1CC[C@@H]1C2=CC[C@@]2(C)[C@H]1CC[C@]2(O)C(=O)CN1CCN(C(=O)c2ccco2)CC1 [Example 6B, 17α-Hydroxy-21-[4-(2-furonylcarbonyl)-1-piperazinyl]pregna-4,9(11)-diene-3,20-dione] | demonstrate inhibition of angiogenesis | – | – |
| CCN(CC)c1cc(N2CCN(CC(=O)[C@@]3(O)CC[C@H]4[C@@H]5CCC6=CC(=O)CC[C@]6(C)C5=CC[C@@]43C)CC2)nc(N(CC)CC)n1 [Example 16, 17α-Hydroxy-21-[4-[2,6-bis(diethylamino)pyrimidinyl]-1-piperazinyl]pregna-4,9(11)-diene-3,20-dione dihydrochloride hydrate] | – | 91 | – |
| CN1CCN(c2cc(N3CCN(CC(=O)[C@@]4(O)CC[C@H]5[C@@H]6CCC7=CC(=O)CC[C@]7(C)C6=CC[C@@]54C)CC3)nc(N3CCN(C)CC3)n2)CC1 [Example 19, 17α-Hydroxy-21-[4-[2,6-bis(4-methyl-1-piperazinyl)A-pyrimidinyl]-1-piperazinyl]-pregna-4,9(11)-diene-3,20-dione methanesulfonate hydrate] | – | – | demonstrate arachidonic acid antagonism |
| C[C@]12CCC(=O)C=C1CC[C@@H]1[C@@H]2C(=O)C[C@@]2(C)[C@H]1CC[C@]2(O)C(=O)CN1CCN(c2ccccn2)CC1 [Example 20] | demonstrate inhibition of angiogenesis | 72 | – |
| COc1cccc(N2CCN(CC(=O)[C@@]3(O)CC[C@H]4[C@@H]5CCC6=CC(=O)CC[C@]6(C)C5=CC[C@@]43C)CC2)n1.CS(=O)(=O)O [Example 22, 17α-hydroxy-21-[4-(6-methoxy-2-pyridinyl)-1-piperazinyl]pregna-4,9(11)-diene-3,20-dione monomethanesulfonate] | – | – | demonstrate arachidonic acid antagonism |
| C[C@]12C=CC(=O)C=C1CC[C@@H]1[C@@H]2[C@@H](O)C[C@@]2(C)[C@H]1CC[C@]2(O)C(=O)CN1CCN(c2ccccn2)CC1 [Example 25, 11.uparw.,17α-dihydroxy-21-[4-(2-pyridinyl)-1-piperazinyl]pregna-1,4-diene-3,20-dione dihydrochloride] | – | – | demonstrate arachidonic acid antagonism |
| CC(C)(C)CC(=O)O[C@@H]1C[C@@]2(C)[C@@H](CC[C@]2(O)C(=O)CN2CCN(c3ccccn3)CC2)[C@@H]2CCC3=CC(=O)CC[C@]3(C)[C@H]21 [Example 28, 11α,17α-Dihydroxy-21-[4-(2-pyridinyl)-1-piperazinyl]pregn-4-ene-3,20-dione 11-(3,3-dimethyl-1-butyratedihydrochloride] | – | 73 | – |
| C[C@]12CCC(=O)C=C1CC[C@@H]1[C@@H]2[C@H](O)C[C@@]2(C)[C@H]1CC[C@]2(O)C(=O)CN1CCN(c2ccc(F)cc2)CC1 [Example 29, 21-[4-(4-fluorophenyl)-1-piperazinyl]-11α,17α-dihydroxypregn-4-ene-3,20-dione dihydrochloride] | – | – | demonstrate arachidonic acid antagonism |
| COc1ccc(N2CCN(CC(=O)[C@@]3(O)CC[C@H]4[C@@H]5CCC6=CC(=O)CC[C@]6(C)[C@H]5[C@H](OC(=O)CC(C)(C)C)C[C@@]43C)CC2)cc1 [Example 32, 11α,17α-dihydroxy-21-[4-(4-methoxyphenyl)-1-piperazinyl]pregn-4-ene-3,20-dione 11-(3,3-dimethyl-1-butyrate) dihydrochloride] | demonstrate inhibition of angiogenesis | – | – |
| COc1ccc(N2CCN(CC(=O)[C@@]3(O)CC[C@H]4[C@@H]5C[C@H](C)C6=CC(=O)C=C[C@]6(C)[C@H]5[C@@H](O)C[C@@]43C)CC2)cc1 [Example 33, 11β,17α-dihydroxy-21-[4-(4-methoxyphenyl)-1-piperazinyl]-6α-methylpregna-1,4-diene-3,20-dione dihydrochloride] | demonstrate inhibition of angiogenesis | – | – |
| COc1ccc(CCNCC(=O)[C@@]2(O)CC[C@H]3[C@@H]4C[C@H](C)C5=CC(=O)C=C[C@]5(C)[C@H]4[C@@H](O)C[C@@]32C)cc1OC [Example 34, 11β,17α-dihydroxy-21-[[2-(3,4-dimethoxy-phenyl)ethyl]amino]-6α-methylpregna-1,4-diene-3,20-dione hydrochloride] | demonstrate inhibition of angiogenesis | – | – |
| C[C@]12C[C@@H](O)[C@H]3[C@@H](CCC4=CC(=O)CC[C@@]43C)[C@@H]1CC[C@@H]2C(=O)CN1CCN(c2ccccn2)CC1.Cl.Cl [Example 36, 11α-hydroxy-21-[4-(2-pyridinyl)-1-piperazinyl]-pregn-4-ene-3,20-dione dihydrochloride] | demonstrate inhibition of angiogenesis | – | – |
| C[C@H]1C[C@H]2[C@@H]3CC[C@H]4CC(=O)CC[C@]4(C)C3=CC[C@]2(C)[C@@]1(O)C(=O)CN1CCN(c2ccccn2)CC1.Cl.Cl.O [Example 44, 17α-hydroxy-16β-methyl-21-[4-(2-pyridinyl)-1-piperazinyl]-5α-pregn-9(11)-ene-3,20-dione dihydrochloride hydrate] | – | 75 | – |
| C[C@]12CC(=O)[C@H]3[C@@H](CCC4=CC(=O)CC[C@@]43C)[C@@H]1CC[C@@H]2C(=O)CN1CCN(c2ccccn2)CC1.Cl.O [Example 45, 21-[4-(2-pyridinyl)-1-piperazinyl]pregn-4-ene-3,11,20-trione hydrochloride hydrate] | – | – | demonstrate arachidonic acid antagonism |
| COc1ccc(CCN(CC(=O)[C@@]2(O)CC[C@H]3[C@@H]4CCC5=CC(=O)CC[C@]5(C)C4=CC[C@@]32C)Cc2ccc(N(C)C)cc2)cc1OC [Example 51, 17α-hydroxy-21-[[2-(3,4-dimethoxyphenyl)ethyl]-4-(dimethylamino)-phenyl]methyl]amino]pregna-4,9(11)-3,20-dione hydrochloride] | – | – | demonstrate arachidonic acid antagonism |
| CCN(CC)c1cc(N2CCN(CC(=O)[C@@]3(O)CC[C@H]4[C@@H]5C[C@H](C)C6=CC(=O)C=C[C@]6(C)C5=CC[C@@]43C)CC2)nc(N(CC)CC)n1 [Example 63, 21-[4-[2,6-bis(diethylamino)-4-pyrimidinyl]-1-piperaz-inyl]-17α-hydroxy-6α-methylpregna-1,4,9(11)-triene-3,20-dione (E)-2-butenedioate (1:1) salt] | demonstrate inhibition of angiogenesis | – | – |
| C[C@]12CCC(=O)C=C1CC[C@@H]1C2=CC[C@@]2(C)[C@H]1CC[C@]2(O)C(=O)CN1CCN(c2cc(N3CCCC3)nc(N3CCCC3)n2)CC1 [Example 64, 17α-hydroxy-21-[4-[2,6-bis(1-pyrrolidinyl)-4-pyrimidinyl]-1-piperazinyl]-pregna-4,9(11)-diene-3,20-dione (E)-2-butenedioate (1:1) salt] | demonstrate inhibition of angiogenesis | – | – |
| C[C@]12CC[C@@H](O)C[C@H]1CC[C@@H]1[C@@H]2C(=O)C[C@@]2(C)[C@H]1CC[C@]2(O)C(=O)CN1CCN(c2ccccn2)CC1 [Example 99, 3α,17α-dihydroxy-21-[4-(2-pyridinyl)-1-piperazinyl]-5β-pregnane-11,20-dione dihydrochloride hydrate] | demonstrate inhibition of angiogenesis | – | – |
